Data from patent US11339158B2, “Crystalline form of valbenazine ditosylate, processes for preparation thereof and use thereof” (Crystal Pharmaceutical (Suzhou) Co., Ltd., priority 2017, dated 2022).
Values after ≈ are worked out from the molar mass of the structure shown. “Also recorded” adds a separate entry of the source. Read-outs that look alike come from different tables or passages of the source. Each block holds one compound with its values, some of them ahead of it.

Tests used:
Assay type in all cases: physicochemical
[1] = Kinetic solubility in FaSSIF and FeSSIF; settings: for solubility kinetic at 15 min / solubility kinetic at 30 min / solubility kinetic at 1 h: thermodynamic from solid, read-out: Kinetic solubility (concentration of saturated solution); for Kinetic solubility (concentration of saturated solution): listed as Prior art Form I
Method: High Performance Liquid Chromatography (HPLC) data in the present disclosure were collected from an Agilent 1260 with Diode Array Detector (DAD).
The HPLC method parameters for solubility test and dissolution tests in the present disclosure are as follows: • 1. Column: Waters XBridge C18 150×4.6 mm, 5 μm • 2. Mobile Phase: A: 0.1% TFA in H2O • B: 0.1% TFA in Acetonitrile
• 3. Flow rate: 1.0 mL/min • 4. Injection Volume: 10 μL • 5. Detection wavelength: 230 nm • 6. Column Temperature: 40° C. • 7. Diluent: Acetonitrile: H2O (v:v)=50:50
Simulated intestinal fluids, such as FaSSIF (fasted state simulated intestinal fluids) and FeSSIF (fed state simulated intestinal fluids) are biorelevant media. These media can better reflect the drug release affected by gastrointestinal environment. Solubility in such media is close to in vivo solubility.
20 mg of Form A in the present disclosure and 20 mg of prior art Form I were suspended in 1.5 mL of FaSSIF and 1.5 mL of FeSSIF to get saturated solutions. After equilibrium for 15 minutes, 30 minutes and 1 hour, concentrations of the saturated solutions (mg/mL) were measured by HPLC.

[2] = Hygroscopicity (Chinese Pharmacopoeia 2015, general notice 9103); settings: for Percentage gain (weight gain, hygroscopicity): 25±1° C., relative humidity 80%±2%, 24 hours
Method: The hygroscopicity experiment was conducted according to general notice 9103 drug hygroscopicity test guidelines in 2015 edition of Chinese Pharmacopoeia. The methods are listed as follows: • 1. A dry weighing bottle with a stopper (outer diameter is 50 mm and the height is 15 mm) was placed in a suitable desiccator at constant temperature of 25±1° C. (saturated solution of ammonium chloride or ammonium sulfate was placed in the lower compartment) or the a man-made climate chamber (the temperature is set as 25°±C. 1° C. and the relative humidity is 80%±2%) the day before the test. The weight is accurately weighed (m1). • 2. A suitable amount of the sample was spread into the weighing bottle. The thickness of the sample is generally about 1 mm, and the weight is accurately weighed (m2). • 3. The weighing bottle was kept open and placed under the same constant temperature and humidity mentioned above for 24 hours as well as the stopper. • 4. T The stopper was put on the weighing bottle, and then the weighing bottle with stopper was accurately weighed (m3).
The hygroscopicity of Form A in the present disclosure and Form I in prior art was tested.

[3] = Stability of Form A drug substance (XRPD and HPLC); settings: for Change in solid form: XRPD; for Change in purity %: HPLC
Method: Four samples of Form A in the present disclosure was stored under different conditions of 25° C./60% RH in open and closed dishes for 3 months, 40° C./75% RH in closed dish for 3 months and 60° C./75% RH in closed dish for 1 week. Crystalline form and chemical impurity were checked by XRPD and HPLC, respectively.

[4] = Mechanical stability (tableting at 15 kN, XRPD); settings: compressed at 15 kN, held 1 minute
Method: About 0.1 g of Form A was added into a die, compressed at 15 kN, and held for 1 minute. And then the pressure was released and the sample in the die was taken out for XRPD test. […] The XRPD pattern is substantially as depicted in FIG. 9.

[5] = Crystalline form after formulation process (XRPD of capsule); settings: Form A in capsule
Method: The preparation process is described in Table 8.
The crystalline form of Form A in capsule was tested by XRPD. […] The XRPD pattern is substantially as depicted in FIG. 10.

[6] = Compressibility (tensile strength); settings: Φ6 mm round tooling, 80 mg, 10 kN; for Tensile strength (MPa): T=2H/πDL; for Diameter (mm) / Thickness (mm): after 24 h
Method: A manual tablet press was used for compression. A certain amount of Form A and prior art Form I were added into the dies of round tooling (Ensuring the isotropy of the tablet), compressed at suitable pressure, and then stored at room temperature for 24 h until complete elastic recovery. Hardness (H) was tested with Intelligent Tablet Hardness Tester. Diameter (D) and thickness (L) were tested with caliper. Tensile strength of the powder was calculated with the following formula: T=2H/πDL. Under a certain force, the greater the tensile strength, the better the compressibility.

[7] = Flowability (compressibility index / Carr Index); settings: for Carr Index: c=(ρf−ρ0)/ρf; for Flowability: criteria of ICH Q4B Annex 13
Method: Compressibility index or Carr Index is usually utilized to evaluate the flowability of powder and granules during the drug product process. Compressibility index test method is as follows: a certain amount of powder was added into a measuring cylinder and bulk volume was recorded. Then the powder was tapped to make it in the tightest state and the tapped volume was recorded. The bulk density (ρ0), tapped density (ρf) were calculated and compressibility index was calculated according to c=(ρf−ρ0)/ρf.

[8] = Adhesiveness (material sticking to the punch); settings: for Cumulative amount (mg) sticking to the punch / Maximum amount (mg) sticking to the punch: 30 mg, φ8 mm round tooling, 10 kN, 30 s, repeated compression
Method: 30 mg of Form A and Form I in prior art were added into the dies of φ8 mm round tooling, compressed at 10 kN and held for 30 s. The punch was weighed and amount of material sticking to the punch was calculated. The compression was repeated several times to record the cumulative amount, maximum amount and average amount of material sticking to the punch during compression process.

[9] = 25° C./60% RH in open dish, 3 months
[10] = 40° C./75% RH in closed dish, 3 months
[11] = 60° C./75% RH in closed dish, 1 week

- solubility kinetic at 15 min ([1]; FaSSIF, FaSSIF, 15 minutes): 31.4 mg/mL (≈ 75.1 mM)
- solubility kinetic at 30 min ([1]; FaSSIF, FaSSIF, 30 minutes): 31.3 mg/mL (≈ 74.8 mM)
- solubility kinetic at 1 h ([1]; FaSSIF, FaSSIF, 1 hour): 31.8 mg/mL (≈ 76 mM)
- Solubility of Form A relative to prior art Form I ([1]; FeSSIF): 1.23 times
- solubility kinetic at 15 min ([1]; FeSSIF, FeSSIF, 15 minutes): 41.9 mg/mL (≈ 100 mM)
- solubility kinetic at 30 min ([1]; FeSSIF, FeSSIF, 30 minutes): 41.7 mg/mL (≈ 99.5 mM)
- solubility kinetic at 1 h ([1]; FeSSIF, FeSSIF, 1 hour): 41.3 mg/mL (≈ 98.6 mM)
- Hygroscopicity relative to prior art form ([2]; Chinese Pharmacopoeia hygroscopicity test): 3/5
- Time physically and chemically stable ([3]; 25° C./60% RH in closed dish): at least 3 months
- Time physically and chemically stable ([3]; 25° C./60% RH in open dish): at least 3 months
- Change in purity % [3, 9]: 0.03%
- Time physically and chemically stable ([3]; 40° C./75% RH in closed dish): at least 3 months
- Change in purity % [3, 10]: 0.09%
- Time stable ([3]; 60° C./75% RH in closed dish): at least 1 week
- Change in purity % [3, 11]: 0.08%
- Tensile strength (MPa) [6]: 1.36 MPa
- Diameter (mm) [6]: 6.11 mm
- Thickness (mm) [6]: 2.33 mm
- Bulk density [7]: 0.179 g/mL
- Tap density [7]: 0.209 g/mL
- Carr Index [7]: 14%
- Flowability [7]: Good (11-15)
- Cumulative amount (mg) sticking to the punch [8]: 0.06 mg
- Maximum amount (mg) sticking to the punch [8]: 0.17 mg
SMILES: COc1cc2c(cc1OC)[C@H]1C[C@@H](OC(=O)[C@@H](N)C(C)C)[C@H](CC(C)C)CN1CC2 [Form A, (S)-2-amino-3-methyl-butyric acid (2R,3R,11bR)-3-isobutyl-9,10-dimethoxy-1,3,4,6,7,11b-hexahydro-2H-pyrido[2,1-a]isoquinolin-2-yl ester]
- Change in solid form ([3]; 25° C./60% RH in closed dish, 3 months): doesn't change; also recorded: No form change
- Change in solid form [3, 9]: doesn't change; also recorded: No form change
- Change in solid form [3, 10]: doesn't change; also recorded: No form change
- Change in solid form [3, 11]: doesn't change; also recorded: No form change
- Form change after tableting [4]: doesn't change; also recorded: no form change is observed
- Form change of Form A after formulation process [5]: no form change was observed; also recorded: doesn't change

- Kinetic solubility (concentration of saturated solution) ([1]; FaSSIF, 15 minutes): 30.637 mg/mL
- Kinetic solubility (concentration of saturated solution) ([1]; FaSSIF, 30 minutes): 30.189 mg/mL
- Kinetic solubility (concentration of saturated solution) ([1]; FaSSIF, 1 hour): 31.010 mg/mL
- Kinetic solubility (concentration of saturated solution) ([1]; FeSSIF, 15 minutes): 34.054 mg/mL
- Kinetic solubility (concentration of saturated solution) ([1]; FeSSIF, 30 minutes): 34.628 mg/mL
- Kinetic solubility (concentration of saturated solution) ([1]; FeSSIF, 1 hour): 35.012 mg/mL
- Percentage gain (weight gain, hygroscopicity) ([2]; listed as Form I in prior art): 0.40%
- Percentage gain (weight gain, hygroscopicity) ([2]; listed as prior art Form I): 0.40%
- Tensile strength (MPa) [6]: 0.86 MPa
- Diameter (mm) [6]: 6.04 mm
- Thickness (mm) [6]: 2.30 mm
- Bulk density [7]: 0.144 g/mL
- Tap density [7]: 0.174 g/mL
- Carr Index [7]: 17%
- Flowability [7]: Fair (16-20)
- Maximum amount sticking to the punch, Form I relative to Form A [8]: more than 3 times
- Cumulative amount (mg) sticking to the punch [8]: 0.21 mg
- Maximum amount (mg) sticking to the punch [8]: 7.58 mg
SMILES: COc1cc2c(cc1OC)[C@H]1C[C@@H](OC(=O)[C@@H](N)C(C)C)[C@H](CC(C)C)CN1CC2 [Form I, (S)-2-amino-3-methyl-butyric acid (2R,3R,11bR)-3-isobutyl-9,10-dimethoxy-1,3,4,6,7,11b-hexahydro-2H-pyrido[2,1-a]isoquinolin-2-yl ester, reference compound]
